Experimental data reported in patent US9676789B2, “Aminated derivative of homoharringtonine, preparation method therefor, and application thereof” (HANGZHOU BENSHENG PHARMACEUTICAL CO., LTD., priority 2011, dated 2017).
Values after ≈ are worked out from the molar mass of the structure shown.

Legend:
[1] = test system: H9 (acute lymphoblastic leukemia, ALL); assay: MTT leukemia cell growth inhibition, 72 h; assay type: cell-based, human; settings: Homo sapiens, H9, 72 h
Procedure, shortened: (§1)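 After 72 h of compound exposure (37°C, 5% CO2), viability was read by MTT and expressed relative to untreated cells at 100%. Each well held 6000 leukemia cells in 1640 medium containing 10% fetal bovine serum, with homoharringtonine derivatives added at a range of concentrations.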

[2] = test system: Jurkat (acute lymphoblastic leukemia, ALL); assay: MTT leukemia cell growth inhibition, 72 h; assay type: cell-based, human; settings: Homo sapiens
Procedure, shortened: as §1

[3] = test system: K562/adr (drug-resistant, chronic myeloid leukemia, CML); assay: MTT leukemia cell growth inhibition, 72 h; assay type: cell-based, human; settings: Homo sapiens, K562/Adr
Procedure, shortened: as §1

[4] = test system: Kasumi-1 (acute myeloid leukemia M2 type, AML-M2); assay: MTT leukemia cell growth inhibition, 72 h; assay type: cell-based, human; settings: Homo sapiens, Kasumi-1, 72 h
Procedure, shortened: as §1

[5] = test system: NB4 (acute promyelocytic leukemia, AML); assay: MTT leukemia cell growth inhibition, 72 h; assay type: cell-based, human; settings: Homo sapiens, NB4, 72 h
Procedure, shortened: as §1

[6] = test system: RPMI8226 (multiple myeloma); assay: MTT multiple myeloma cell growth inhibition, 72 h; assay type: cell-based, human
Procedure, shortened: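 RPMI8226 cells at 6000 per well in 1640 medium with 10% fetal bovine serum, exposed to homoharringtonine derivatives at various concentrations. Incubation 72 h at 37° C, 5% CO2; viable cells read by MTT.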

[7] = test system: A549 (human lung cancer); assay: MTT solid tumor cell growth inhibition, 72 h; assay type: cell-based; settings: Homo sapiens, A549, 72 h
Procedure, shortened: (§2)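 MTT read-out after 72 h compound treatment at 37° C, 5% CO2, of 4000 cells/well that had first been cultured 24 h in DMEM high glucose plus 10% FBS. Cell viability (%) refers to untreated control as 100%.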

[8] = test system: Becap37 (human breast cancer cell); assay: MTT solid tumor cell growth inhibition, 72 h; assay type: cell-based; settings: Homo sapiens, Becap37, 72 h
Procedure, shortened: as §2

[9] = test system: Hela (human cervical cancer cell); assay: MTT solid tumor cell growth inhibition, 72 h; assay type: cell-based; settings: Homo sapiens, HeLa
Procedure, shortened: as §2

[10] = test system: Hep-2 (human hepatocellular carcinoma); assay: MTT solid tumor cell growth inhibition, 72 h; assay type: cell-based; settings: Homo sapiens, HEp-2, Hep2, 72 h
Procedure, shortened: as §2

[11] = test system: Huh7 (human liver cancer cell); assay: MTT solid tumor cell growth inhibition, 72 h; assay type: cell-based; settings: Homo sapiens, Huh-7, Huh7, 72 h
Procedure, shortened: as §2

[12] = test system: MGC 803 (human gastric cancer cell); assay: MTT solid tumor cell growth inhibition, 72 h; assay type: cell-based; settings: Homo sapiens, MGC 803, 72 h
Procedure, shortened: as §2

[13] = test system: RKO (human colon adenocarcinoma cell); assay: MTT solid tumor cell growth inhibition, 72 h; assay type: cell-based; settings: Homo sapiens
Procedure, shortened: as §2

[14] = test system: CNE (nasopharyngeal carcinoma cell); assay: MTT solid tumor cell growth inhibition, 72 h; assay type: cell-based, human; settings: Homo sapiens
Procedure, shortened: as §2

[15] = test system: CaES-17 (esophageal cancer cell); assay: MTT solid tumor cell growth inhibition, 72 h; assay type: cell-based, human; settings: Homo sapiens, CaEs17, CaES-17, 72 h
Procedure, shortened: as §2

[16] = test system: MG63 (osteosarcoma); assay: MTT solid tumor cell growth inhibition, 72 h; assay type: cell-based, human; settings: Homo sapiens, MG 63, 72 h
Procedure, shortened: as §2

[17] = test system: PANC-1 (pancreatic cancer); assay: MTT solid tumor cell growth inhibition, 72 h; assay type: cell-based, human; settings: Homo sapiens, PANC-1, 72 h
Procedure, shortened: as §2

[18] = test system: PC-3 (prostate cancer); assay: MTT solid tumor cell growth inhibition, 72 h; assay type: cell-based, human; settings: Homo sapiens, PC-3, 72 h
Procedure, shortened: as §2

[19] = test system: SK-OV-3 (ovarian cancer cell); assay: MTT solid tumor cell growth inhibition, 72 h; assay type: cell-based, human; settings: Homo sapiens, SK-OV-3, 72 h
Procedure, shortened: as §2

[20] = test system: U87 MG (malignant glioma cell); assay: MTT solid tumor cell growth inhibition, 72 h; assay type: cell-based, human; settings: Homo sapiens, U-87 MG
Procedure, shortened: as §2

[21] = test system: K562/adr, NB4, Kasumi-1 and H9; assay: Anti-leukemia activity, summary over cell lines; assay type: cell-based, human; settings: result in words, summary of Table 1
Text: Leukemia cell lines: K562/adr (drug-resistant, chronic myeloid leukemia, CML), NB4 (acute promyelocytic leukemia, AML), Kasumi-1 (acute myeloid leukemia M2 type, AML-M2), Jurkat (acute lymphoblastic leukemia, ALL), all of which are donated by Cancer Research Institute of Zhejiang University, China; and H9 (acute lymphoblastic leukemia, ALL), which is purchased from China Center for Type Culture Collection.
Obtaining 6000 well-growing leukemia cells and inoculating them into wells of a 96-well cell culture plate. The culture medium is the 1640 cell culture medium containing 10% fetal bovine serum. After adding the homoharringtonine derivatives of different concentrations and mixing uniformly, placing the plate in a carbon dioxide cell incubator (5% CO2) at 37° C. and incubating for 72 hours. Then the viable cell concentration is determined by the MTT method. In this experiment, the cell viability in control group (not treated with any compound) is set as 100%.

[22] = test system: A549, PANC-1, Becap37, MG63, Huh7, RKO, Hela, CaES-17, CNE, Hep-2, PC-3 and SK-OV-3; assay: Anti-human solid tumor effect, summary over cell lines; assay type: cell-based; settings: result in words, summary of Table 2
Protocol: Human solid tumor cell lines: Hep-2 ([…]), A549 (human lung cancer), CaES-17 (esophageal cancer cell), PC-3 (prostate cancer), CNE (nasopharyngeal carcinoma cell), and SK-OV-3 (ovarian cancer cell), all of which are purchased from China Center For Type Culture Collection; RKO (human colon adenocarcinoma cell), MGC 803 (human gastric cancer cell), MG63 (osteosarcoma) and U87 MG (malignant glioma cell), all of which are purchased from Fuxiang Bio-tech Co. Ltd., Shanghai, China; PANC-1 (pancreatic cancer), Huh7 (human liver cancer cell), Becap37 (human breast cancer cell), and Hela (human cervical cancer cell), all of which are donated by Cancer Research Institute of Zhejiang University, China.
Obtaining 4000 well-growing human solid tumor cells and inoculating them into wells of a 96-well cell culture plate. The culture medium is DMEM High Glucose cell culture medium containing 10% fetal bovine serum. The plate is placed in a carbon dioxide cell incubator (5% CO2) at 37° C. and incubating for 24 hours. After adding the homoharringtonine derivatives of different concentration and mixing uniformly, the plate is placed in a carbon dioxide cell incubator (5% CO2) at 37° C. and incubating for 72 hours. Then the viable cell concentration is determined by the MTT method and the cell viability (%) after drug treatment is calculated. In this experiment, the cell viability of control group (not treated with any compound) is set as 100%.

SMILES: COC1=C[C@]23CCCN2CCc2cc4c(cc2[C@@H]3[C@@H]1OC(=O)[C@@](O)(CCCC(C)(C)O)CC(=O)NCc1ccc(C)o1)OCO4 [BS-HH-054, O-3-[(2R)-2,6-dihydroxy-2-(2′-(5-methyl)furan-2-methylamino-2′-oxoethyl)-6-methylheptanoyl]cephalotaxine]
- IC50 ([1]; read-out: IC50): 0.17 µg/mL (≈ 0.272 µM)
- IC90 ([1]; read-out: IC90): 0.43 µg/mL (≈ 0.688 µM)
- IC50 ([2]; read-out: IC50): 0.11 µg/mL (≈ 0.176 µM)
- IC90 ([2]; read-out: IC90): 16 µg/mL (≈ 25.6 µM)
- IC50 ([3]; read-out: IC50): 0.66 µg/mL (≈ 1.06 µM)
- IC90 ([3]; read-out: IC90): 4.4 µg/mL (≈ 7.04 µM)
- IC50 ([4]; read-out: IC50): 0.053 µg/mL (≈ 0.0848 µM)
- IC90 ([4]; read-out: IC90): 0.19 µg/mL (≈ 0.304 µM)
- IC50 ([5]; read-out: IC50): 0.09 µg/mL (≈ 0.144 µM)
- IC90 ([5]; read-out: IC90): 0.2 µg/mL (≈ 0.32 µM)
- IC50 ([6]; Homo sapiens, RPMI-8226, RPMI8226, 72 h, read-out: IC50): 0.092 µg/mL (≈ 0.147 µM)
- IC90 ([6]; Homo sapiens, RPMI-8226, RPMI8226, 72 h, read-out: IC90): 0.24 µg/mL (≈ 0.384 µM)
- anti-RPMI8226 (multiple myeloma) effect ([6]; result in words, summary of Table 2): strong
- IC50 ([7]; read-out: IC50): 0.72 µg/mL (≈ 1.15 µM)
- IC90 ([7]; read-out: IC90): > 16 µg/mL
- IC50 ([8]; read-out: IC50): 0.14 µg/mL (≈ 0.224 µM)
- IC90 ([8]; read-out: IC90): 16 µg/mL (≈ 25.6 µM)
- IC50 ([9]; read-out: IC50): 0.3 µg/mL (≈ 0.48 µM)
- IC90 ([9]; read-out: IC90): > 16 µg/mL
- IC50 ([10]; read-out: IC50): 0.23 µg/mL (≈ 0.368 µM)
- IC90 ([10]; read-out: IC90): > 16 µg/mL
- IC50 ([11]; read-out: IC50): 0.12 µg/mL (≈ 0.192 µM)
- IC90 ([11]; read-out: IC90): 16 µg/mL (≈ 25.6 µM)
- IC50 ([12]; read-out: IC50): 0.15 µg/mL (≈ 0.24 µM)
- IC90 ([12]; read-out: IC90): 6 µg/mL (≈ 9.6 µM)
- IC50 ([13]; read-out: IC50): 2.75 µg/mL (≈ 4.4 µM)
- IC90 ([13]; read-out: IC90): 6.97 µg/mL (≈ 11.2 µM)
- IC50 ([14]; read-out: IC50): 0.15 µg/mL (≈ 0.24 µM)
- IC90 ([14]; read-out: IC90): 16 µg/mL (≈ 25.6 µM)
- IC50 ([15]; read-out: IC50): 1.37 µg/mL (≈ 2.19 µM)
- IC90 ([15]; read-out: IC90): > 16 µg/mL
- IC50 ([16]; read-out: IC50): 0.12 µg/mL (≈ 0.192 µM)
- IC90 ([16]; read-out: IC90): 8.07 µg/mL (≈ 12.9 µM)
- IC50 ([17]; read-out: IC50): 0.15 µg/mL (≈ 0.24 µM)
- IC90 ([17]; read-out: IC90): > 16 µg/mL
- IC50 ([18]; read-out: IC50): 0.46 µg/mL (≈ 0.736 µM)
- IC90 ([18]; read-out: IC90): > 16 µg/mL
- IC50 ([19]; read-out: IC50): 0.47 µg/mL (≈ 0.752 µM)
- IC90 ([19]; read-out: IC90): > 16 µg/mL
- IC50 ([20]; read-out: IC50): 0.32 µg/mL (≈ 0.512 µM)
- IC90 ([20]; read-out: IC90): 16 µg/mL (≈ 25.6 µM)
- anti-K562/adr, anti-NB4, anti-Kasumi-1 and anti-H9 activity [21]: strong
- anti-A549, anti-PANC-1, anti-Becap37, anti-MG63, anti-Huh7, anti-RKO, anti-Hela, anti-CaES-17, anti-CNE, anti-Hep-2, anti-PC-3 and anti-SK-OV-3 effect [22]: strong
